Reference: PubChem BioAssay AID248 (DTP/NCI, 2004)
Where “and” joins values, the source holds several entries; their conditions need not be identical. Equal values may be shown once. Toxic doses and inconclusive results are not listed. Rule as the data show it: active = T/C of 150% or more; inactive = T/C below 125%.

System: L1210 leukemia ip in BDF1 mice, survival T/C
Experiment: NCI In Vivo Anticancer Drug Screen. Data for tumor model L1210 Leukemia (intraperitoneal) in B6D2F1 (BDF1) mice
Settings: endpoint: mean survival time, higher = longer survival
Method in brief: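 In this screen, tumor-bearing mice given compound are compared to those given vehicle, and their survival values are reported as a treated-to-control quotient.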

[1] = dose: 50.0 mg/kg/injection, schedule: Q01DX009 (ip), vehicle: Klucel (hydroxypropylcellulose) (HPC)
[2] = dose: 100.0 mg/kg/injection, schedule: Q04DX003 (ip), vehicle: Klucel (hydroxypropylcellulose) (HPC)
[3] = dose: 200.0 mg/kg/injection, schedule: Q04DX003 (ip), vehicle: Klucel (hydroxypropylcellulose) (HPC)
[4] = dose: 400.0 mg/kg/injection, schedule: Q04DX003 (ip), vehicle: Klucel (hydroxypropylcellulose) (HPC)
[5] = dose: 25.0 mg/kg/injection, schedule: Q01DX009 (ip), vehicle: saline
[6] = dose: 25.0 mg/kg/injection, schedule: Q04DX003 (ip), vehicle: saline
[7] = dose: 50.0 mg/kg/injection, schedule: Q01DX009 (ip), vehicle: saline
[8] = dose: 50.0 mg/kg/injection, schedule: Q04DX003 (ip), vehicle: saline
[9] = dose: 100.0 mg/kg/injection, schedule: Q01DX001 (ip), vehicle: saline
[10] = dose: 100.0 mg/kg/injection, schedule: Q04DX003 (ip), vehicle: saline
[11] = dose: 100.0 mg/kg/injection, schedule: Q04DX003 (ip), vehicle: saline with Tween-80
[12] = dose: 200.0 mg/kg/injection, schedule: Q04DX003 (ip), vehicle: saline with Tween-80
[13] = dose: 400.0 mg/kg/injection, schedule: Q04DX003 (ip), vehicle: saline with Tween-80

Measured: T/C

Cc1ccc(Oc2ccc3c(c2)CN(C)CC3)cc1
inactive: dose: 100.0 mg/kg/injection, schedule: Q04DX002 (ip), vehicle: Klucel (hydroxypropylcellulose) (HPC) 97 % of control | dose: 200.0 mg/kg/injection, schedule: Q04DX002 (ip), vehicle: Klucel (hydroxypropylcellulose) (HPC) 102 % of control | dose: 400.0 mg/kg/injection, schedule: Q04DX002 (ip), vehicle: Klucel (hydroxypropylcellulose) (HPC) 91 % of control

CC1(C)C/C(=C\c2cccc([N+](=O)[O-])c2)C(=O)c2ccccc21
inactive: dose: 100.0 mg/kg/injection, schedule: Q01DX001 (ip), vehicle: Klucel (hydroxypropylcellulose) (HPC) 94 % of control | dose: 200.0 mg/kg/injection, schedule: Q01DX001 (ip), vehicle: Klucel (hydroxypropylcellulose) (HPC) 93 % of control | dose: 400.0 mg/kg/injection, schedule: Q01DX001 (ip), vehicle: Klucel (hydroxypropylcellulose) (HPC) 94 % of control

NNS(=O)(=O)c1ccc([N+](=O)[O-])cc1
inactive: dose: 12.5 mg/kg/injection, schedule: Q01DX009 (ip), vehicle: Klucel (hydroxypropylcellulose) (HPC) 109 % of control | dose: 25.0 mg/kg/injection, schedule: Q01DX009 (ip), vehicle: Klucel (hydroxypropylcellulose) (HPC) 106 % of control | [1] 101 % of control

BrCC(Br)c1ccccc1 (stereo unspecified)
inactive: [2] 91 % of control | [3] 91 % of control | [4] 98 % of control

CCOCN(C)C
inactive: dose: 25.0 mg/kg/injection, schedule: Q01DX001 (ip), vehicle: saline 103 % of control | [5] 103 % of control | [6] 100 % of control | dose: 44.0 mg/kg/injection, schedule: Q01DX009 (ip), vehicle: saline 110 % of control | dose: 50.0 mg/kg/injection, schedule: Q01DX001 (ip), vehicle: saline 94 % of control | [7] 105 % of control | [8] 100 % of control | dose: 66.0 mg/kg/injection, schedule: Q01DX009 (ip), vehicle: saline 103 % of control | [9] 97 % of control and 107 % of control | dose: 100.0 mg/kg/injection, schedule: Q01DX009 (ip), vehicle: saline 97 % of control | [10] 105 % of control

CCCC=C(CCCC)CCCC
inactive: dose: 100.0 mg/kg/injection, schedule: Q04DX002 (ip), vehicle: saline with Tween-80 87 % of control | dose: 200.0 mg/kg/injection, schedule: Q04DX002 (ip), vehicle: saline with Tween-80 94 % of control

CC1CN=C(c2cccc(NC(=O)NCCCCNC(=O)Nc3cccc(C4=NCC(C)N4)c3)c2)N1 (stereo unspecified)
inactive: dose: 6.5 mg/kg/injection, schedule: Q01DX Z (ip), vehicle: carboxymethylcellulose (CMC) 94 % of control

CN1C(=O)NC(=O)C1c1ccccc1 (stereo unspecified)
inactive: dose: 100.0 mg/kg/injection, schedule: Q04DX002 (ip), vehicle: saline 117 % of control | dose: 200.0 mg/kg/injection, schedule: Q04DX002 (ip), vehicle: saline 106 % of control | dose: 400.0 mg/kg/injection, schedule: Q04DX002 (ip), vehicle: saline 106 % of control

CCCCOP(=O)(OCCCC)C(=O)N(CC)CC
inactive: [2] 112 % of control | [3] 101 % of control | [4] 93 % of control

CCCCNC(C)(C)C(SS)c1ccc(C(F)(F)F)cc1 (stereo unspecified)
inactive: dose: 25.0 mg/kg/injection, schedule: Q01DX009 (ip), vehicle: other 96 % of control | dose: 25.0 mg/kg/injection, schedule: Q04DX003 (ip), vehicle: other 98 % of control | dose: 50.0 mg/kg/injection, schedule: Q01DX009 (ip), vehicle: other 94 % of control | dose: 50.0 mg/kg/injection, schedule: Q04DX003 (ip), vehicle: other 93 % of control | dose: 100.0 mg/kg/injection, schedule: Q01DX009 (ip), vehicle: other 98 % of control | dose: 100.0 mg/kg/injection, schedule: Q04DX003 (ip), vehicle: other 86 % of control

O=C(O)c1c(-c2ccccc2)[nH]c2ccccc2c1=O
inactive: [2] 88 % of control | [3] 87 % of control | [4] 90 % of control

COc1c2c(cc3c1C(Cl)N(C)CC3)OCO2 (stereo unspecified)
inactive: [5] 98 % of control | [6] 103 % of control | [7] 104 % of control | [8] 97 % of control | [10] 98 % of control and 102 % of control

O=c1c2ccccc2sc2c1ccc1c2ccc2c(=O)c3ccccc3sc21
inactive: [11] 96 % of control | [12] 87 % of control

c1ccc2nc(N3CCCCC3)c(N3CCCCC3)nc2c1
inactive: dose: 222.0 mg/kg/injection, schedule: Q01DX Z (ip), vehicle: methylcellulose (MC) 108 % of control | dose: 333.0 mg/kg/injection, schedule: Q01DX Z (ip), vehicle: methylcellulose (MC) 96 % of control | dose: 500.0 mg/kg/injection, schedule: Q01DX Z (ip), vehicle: methylcellulose (MC) 92 % of control

O/N=C(/C=C(/C(=C/C(=N/O)c1ccccc1)c1ccccc1)c1ccccc1)c1ccccc1
inactive: [1] 102 % of control | dose: 100.0 mg/kg/injection, schedule: Q01DX009 (ip), vehicle: Klucel (hydroxypropylcellulose) (HPC) 94 % of control | dose: 200.0 mg/kg/injection, schedule: Q01DX009 (ip), vehicle: Klucel (hydroxypropylcellulose) (HPC) 87 % of control

COc1ccc(OC)c(/C=C/C(=O)n2cnc3c(N)ncnc32)c1
inactive: [11] 93 % of control | [12] 93 % of control | [13] 88 % of control

Nc1ccccc1SC1CC(=O)N(c2cccc3ccccc23)C1=O (stereo unspecified)
inactive: [2] 89 % of control | [4] 90 % of control

[O-][n+]1ccccc1/C=C\c1ccccc1
inactive: [9] 92 % of control | dose: 200.0 mg/kg/injection, schedule: Q01DX001 (ip), vehicle: saline 94 % of control

CC(=O)c1ccc(NC(=O)C(F)(F)F)cc1
inactive: dose: 50.0 mg/kg/injection, schedule: Q01DX001 (ip), vehicle: carboxymethylcellulose (CMC) 101 % of control | dose: 100.0 mg/kg/injection, schedule: Q01DX001 (ip), vehicle: carboxymethylcellulose (CMC) 95 % of control | dose: 200.0 mg/kg/injection, schedule: Q01DX001 (ip), vehicle: carboxymethylcellulose (CMC) 97 % of control | dose: 400.0 mg/kg/injection, schedule: Q01DX001 (ip), vehicle: carboxymethylcellulose (CMC) 92 % of control

Cc1noc(N)c1-n1c(C)ccc1C
inactive: dose: 100.0 mg/kg/injection, schedule: Q01DX009 (ip), vehicle: saline with Tween-80 102 % of control | [11] 100 % of control | dose: 200.0 mg/kg/injection, schedule: Q01DX009 (ip), vehicle: saline with Tween-80 105 % of control | [12] 98 % of control | dose: 400.0 mg/kg/injection, schedule: Q01DX009 (ip), vehicle: saline with Tween-80 100 % of control | [13] 94 % of control
